Assay results: ChEMBL document CHEMBL1201862, “PubChem BioAssay data set” (2004)
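All cell lines were grown in 96-well plates and treated with compound for 48 hours. Here, GI50 denotes the concentration required for 50% inhibition of growth.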 Calls of active or inactive are those of the source. Cut-off read from the data, not from the text of the source: active = GI50 up to about 1.1 µM and inactive = higher.

Experiments:
Test in all cases: NCI-60 cell line screen, 48 h
786-0 = test system: 786-0
A498 = test system: A498
A549 = test system: A549
CAKI-1 = test system: CAKI-1
CCRF-CEM = test system: CCRF-CEM
COLO 205 = test system: COLO 205
DLD-1 = test system: DLD-1
DMS-114 = test system: DMS-114
DMS-273 = test system: DMS-273
EKVX = test system: EKVX
HCC 2998 = test system: HCC 2998
HCT-116 = test system: HCT-116
HL-60 = test system: HL-60
HOP-62 = test system: HOP-62
HOP-92 = test system: HOP-92
HT-29 = test system: HT-29
IGROV-1 = test system: IGROV-1
K562 = test system: K562
KM12 = test system: KM12
LOX IMVI = test system: LOX IMVI
LXFL 529 = test system: LXFL 529
M14 = test system: M14
M19-MEL = test system: M19-MEL
MOLT-4 = test system: MOLT-4
Malme-3M = test system: Malme-3M
NCI-H226 = test system: NCI-H226
NCI-H23 = test system: NCI-H23
NCI-H522 = test system: NCI-H522
OVCAR-3 = test system: OVCAR-3
OVCAR-4 = test system: OVCAR-4
OVCAR-8 = test system: OVCAR-8
RPMI-8226 = test system: RPMI-8226
SF-268 = test system: SF-268
SF-295 = test system: SF-295
SF-539 = test system: SF-539
SK-MEL-28 = test system: SK-MEL-28
SK-MEL-2 = test system: SK-MEL-2
SK-MEL-5 = test system: SK-MEL-5
SK-OV-3 = test system: SK-OV-3
SN12C = test system: SN12C
SNB-19 = test system: SNB-19
SNB-75 = test system: SNB-75
SNB-78 = test system: SNB-78
SR = test system: SR
SW-620 = test system: SW-620
TK-10 = test system: TK-10
UACC-257 = test system: UACC-257
UACC-62 = test system: UACC-62
UO-31 = test system: UO-31
XF498 = test system: XF498
ACHN = test system: ACHN
HCT-15 = test system: HCT-15
KM-20L2 = test system: KM-20L2
NCI-H460 = test system: NCI-H460
RXF 393 = test system: RXF 393
U-251 = test system: U-251
HOP-18 = test system: HOP-18
OVCAR-5 = test system: OVCAR-5

Measured: GI50

O=C1OC(Cl)C(N=P(c2ccccc2)(c2ccccc2)c2ccccc2)=C1Cl (stereo unspecified)
inactive: 786-0 80.4 µM | A498 > 100 µM | A549 > 100 µM | CAKI-1 > 100 µM | CCRF-CEM > 100 µM | COLO 205 > 100 µM | DLD-1 > 100 µM | DMS-114 > 100 µM | DMS-273 > 100 µM | EKVX > 100 µM | HCC 2998 > 100 µM | HCT-116 > 100 µM | HL-60 > 100 µM | HOP-62 > 100 µM | HOP-92 > 100 µM | HT-29 > 100 µM | IGROV-1 > 100 µM | K562 > 100 µM | KM12 > 100 µM | LOX IMVI > 100 µM | LXFL 529 > 100 µM | M14 > 100 µM | M19-MEL > 100 µM | MOLT-4 > 100 µM | Malme-3M > 100 µM | NCI-H226 > 100 µM | NCI-H23 > 100 µM | NCI-H522 > 100 µM | OVCAR-3 > 100 µM | OVCAR-4 > 100 µM | OVCAR-8 > 100 µM | RPMI-8226 > 100 µM | SF-268 > 100 µM | SF-295 > 100 µM | SF-539 93.3 µM | SK-MEL-28 > 100 µM | SK-MEL-2 > 100 µM | SK-MEL-5 > 100 µM | SK-OV-3 > 100 µM | SN12C > 100 µM | SNB-19 > 100 µM | SNB-75 36.4 µM | SNB-78 37.9 µM | SR > 100 µM | SW-620 > 100 µM | TK-10 > 100 µM | UACC-257 > 100 µM | UACC-62 > 100 µM | UO-31 > 100 µM | XF498 > 100 µM

COC(=O)CC1NC(=O)C1C1(C)OCCO1 (stereo unspecified)
> 100 µM: HCT-15
inactive: 786-0 > 100 µM | A498 > 100 µM | A549 > 100 µM | ACHN > 100 µM | COLO 205 > 100 µM | DLD-1 > 100 µM | DMS-114 > 100 µM | DMS-273 > 100 µM | EKVX > 100 µM | HCC 2998 > 100 µM | HCT-116 > 100 µM | HL-60 > 100 µM | HOP-62 > 100 µM | HT-29 > 100 µM | IGROV-1 > 100 µM | KM-20L2 > 100 µM | LOX IMVI > 100 µM | LXFL 529 > 100 µM | M14 > 100 µM | M19-MEL > 100 µM | Malme-3M > 100 µM | NCI-H226 > 100 µM | NCI-H23 > 100 µM | NCI-H460 > 100 µM | OVCAR-3 > 100 µM | OVCAR-4 > 100 µM | OVCAR-8 > 100 µM | RPMI-8226 > 100 µM | RXF 393 > 100 µM | SF-268 > 100 µM | SF-295 > 100 µM | SF-539 > 100 µM | SK-MEL-28 > 100 µM | SK-MEL-2 > 100 µM | SK-MEL-5 > 100 µM | SN12C > 100 µM | SNB-19 > 100 µM | SNB-75 28 µM | SR > 100 µM | SW-620 > 100 µM | TK-10 > 100 µM | U-251 > 100 µM | UACC-257 > 100 µM | UACC-62 > 100 µM | UO-31 > 100 µM | XF498 > 100 µM

CN(C)CCS/C(=N\c1ccccc1)N1CCCCC1
inactive: 786-0 16.3 µM | A549 91.8 µM | ACHN 16.5 µM | CAKI-1 47.6 µM | CCRF-CEM 23.8 µM | COLO 205 15.2 µM | DLD-1 17.3 µM | DMS-114 13.5 µM | DMS-273 16.7 µM | HCT-116 19.7 µM | HL-60 11.4 µM | HOP-18 17.9 µM | HOP-62 > 100 µM | HOP-92 13.7 µM | HT-29 17.9 µM | IGROV-1 16 µM | K562 28.4 µM | KM-20L2 17.2 µM | KM12 16.5 µM | LOX IMVI 16.3 µM | LXFL 529 15.9 µM | M14 16.4 µM | M19-MEL 17.1 µM | MOLT-4 19 µM | Malme-3M 18.9 µM | NCI-H226 7.41 µM | NCI-H23 19.1 µM | NCI-H460 17.5 µM | NCI-H522 14.7 µM | OVCAR-3 16 µM | OVCAR-4 19.1 µM | OVCAR-5 17.6 µM | OVCAR-8 17.5 µM | RPMI-8226 22.3 µM | RXF 393 18.2 µM | SF-268 18.4 µM | SF-295 83 µM | SF-539 20.2 µM | SK-MEL-28 14.8 µM | SK-MEL-2 16.5 µM | SK-MEL-5 16.1 µM | SK-OV-3 75.7 µM | SN12C 17.7 µM | SNB-19 86.9 µM | SNB-75 21.8 µM | SR 18.6 µM | SW-620 17.8 µM | TK-10 18 µM | U-251 41.8 µM | UACC-257 14.7 µM | UACC-62 16 µM | UO-31 20.3 µM | XF498 16.1 µM
16.4 µM: HCT-15
